The target in assay [1] is T1, hRIPK1 (aa 1-375) fusion protein (Homo sapiens, UniProt Q13546).
T1 construct: hRIPK1 (aa 1-375) fusion protein
T1 sequence (Q13546 1-375): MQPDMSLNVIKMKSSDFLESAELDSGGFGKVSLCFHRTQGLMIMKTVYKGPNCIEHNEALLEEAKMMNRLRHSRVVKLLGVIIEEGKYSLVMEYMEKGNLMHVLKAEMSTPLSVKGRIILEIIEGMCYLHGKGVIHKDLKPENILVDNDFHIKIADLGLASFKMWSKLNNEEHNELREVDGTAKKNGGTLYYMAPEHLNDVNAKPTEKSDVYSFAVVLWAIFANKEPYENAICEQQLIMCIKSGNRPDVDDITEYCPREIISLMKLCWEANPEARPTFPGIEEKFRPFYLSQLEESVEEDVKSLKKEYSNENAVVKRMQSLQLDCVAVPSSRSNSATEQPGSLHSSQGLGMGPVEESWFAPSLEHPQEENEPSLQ
The assay can be described thus: Receptor-Interacting Protein Kinase 1 inhibition, ADP Glo assay (conversion of ATP to ADP due to autophosphorylation). The format is biochemical. The conditions noted are these: ATP 50 μM, 30 min preincubation, 240 min incubation, room temperature, DMSO 1%. An outline of the steps:
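hRIPK1 (aa 1-375) fusion protein (3.6 μg/ml final) was preincubated 30 min at rt with compound (33300-1.69 nM, 1% DMSO), then 50 μM ATP was added for 240 min at rt. ADP from autophosphorylation was measured by ADP-Glo luminescence and curves fitted by nonlinear regression.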
Background: In ADP-Glo the light output rises with the ADP produced.

In another assay the test system is U937 cells. As to the kind of experiment: Cellular assay in U937 cells to measure activity of RIPK1-inhibitors on cell death (necroptosis). The conditions noted are these: Homo sapiens, U-937, TNFα/zVAD.fmk induced cell death (necroptosis), overnight (18 to 24 hrs), 37° C., MTS readout. The format is cell-based.

Turning to `NC(=O)c1cc(OC[C@H]2CC[C@H](C(=O)N3OCC[C@H]3c3cc(F)cc(F)c3)CC2)ncn1` [Compound 47, trans-6-((4-((S)-3-(3,5-difluorophenyl)isoxazolidine-2-carbonyl)cyclohexyl)methoxy)pyrimidine-4-carboxamide], the IC50 in assay [1] was determined as 50 nM; in the assay on U937 cells, 21 nM.
In the same order, the values of `N#Cc1cc(F)cc(OC[C@H]2CC[C@H](C(=O)N3OCC[C@H]3c3cc(F)cc(F)c3)CC2)c1` [Compound 48, trans-3-((4-((S)-3-(3,5-difluorophenyl)isoxazolidine-2-carbonyl)cyclohexyl)methoxy)-5-fluorobenzonitrile] are 44 nM and 13 nM.
In the same order, the values of `N#Cc1cc(F)cc(OC[C@H]2CC[C@H](C(=O)N3OCC[C@H]3c3cc(F)cc(C#N)c3)CC2)c1` [Compound 49, trans-3-((S)-2-(4-((3-cyano-5-fluorophenoxy)methyl)cyclohexane-1-carbonyl)isoxazolidin-3-yl)-5-fluorobenzonitrile] are 44 nM and 18 nM.
In the same order, the values of `N#Cc1cc(F)cc(O[C@H]2C[C@H](C(=O)N3OCC[C@H]3c3cc(F)cc(F)c3)C2)c1` [Compound 50, trans-3-(3-((S)-3-(3,5-difluorophenyl)isoxazolidine-2-carbonyl)cyclobutoxy)-5-fluorobenzonitrile] are 25 nM and 130 nM.
With `N#Cc1cc(O[C@H]2C[C@H](C(=O)N3OCC[C@H]3c3cc(F)cc(F)c3)C2)ccc1F` [Compound 51, trans-5-(3-((S)-3-(3,5-difluorophenyl)isoxazolidine-2-carbonyl)cyclobutoxy)-2-fluorobenzonitrile], the IC50 in assay [1] is 21 nM; with U937 cells, 6 nM.
In the same order, the values of `N#Cc1cc(OC[C@H]2CC[C@@H](C(=O)N3OCC[C@H]3c3cc(F)cc(F)c3)CC2)ccc1F` [Compound 52, cis-5-((4-((S)-3-(3,5-difluorophenyl)isoxazolidine-2-carbonyl)cyclohexyl)methoxy)-2-fluorobenzonitrile] are 18 nM and 6 nM.
Take `N#Cc1cc(F)cc(OC[C@H]2CC[C@@H](C(=O)N3OCC[C@H]3c3cc(F)cc(F)c3)CC2)c1` [Compound 53, cis-3-((4-((S)-3-(3,5-difluorophenyl)isoxazolidine-2-carbonyl)cyclohexyl)methoxy)-5-fluorobenzonitrile]: the IC50 in assay [1] came out at 18 nM; in the assay with U937 cells, 17 nM.
In the same order, the values of `NC(=O)c1cc(OC[C@H]2CC[C@@H](C(=O)N3OCC[C@H]3c3cc(F)cc(F)c3)CC2)ncn1` [Compound 54, cis-6-((4-((S)-3-(3,5-difluorophenyl)isoxazolidine-2-carbonyl)cyclohexyl)methoxy)pyrimidine-4-carboxamide] are 80 nM and 364 nM.
In the same order, the values of `N#Cc1cc(OC[C@H]2CC[C@@H](C(=O)N3OCC[C@H]3c3cc(F)cc(F)c3)CC2)ncn1` [Compound 55, cis-6-((4-((S)-3-(3,5-difluorophenyl)isoxazolidine-2-carbonyl)cyclohexyl)methoxy)pyrimidine-4-carbonitrile] are 56 nM and 1530 nM.
The corresponding values for `O=C([C@H]1CC[C@@H](COc2cc(Cl)ncn2)CC1)N1OCC[C@H]1c1cc(F)cc(F)c1` [Compound 56, cis-(4-(((6-chloropyrimidin-4-yl)oxy)methyl)cyclohexyl)((S)-3-(3,5-difluorophenyl)isoxazolidin-2-yl)methanone] are 47 nM and 125 nM.
For the molecule `CC1(C)OC(=O)N(c2ccc(Cl)c(OC[C@H]3CC[C@H](C(=O)N4OCC[C@H]4c4cc(F)cc(F)c4)CC3)c2)C1=O` [Compound 57, trans-3-(4-chloro-3-((4-((S)-3-(3,5-difluorophenyl)isoxazolidine-2-carbonyl)cyclohexyl)methoxy)phenyl)-5,5-dimethyloxazolidine-2,4-dione], the 50% inhibitory concentration (IC50) amounted to 38 nM in assay [1] and 37 nM in the assay on U937 cells.
In the same order, the values of `O=C1CCC(=O)N1c1ccc(Cl)c(OC[C@H]2CC[C@H](C(=O)N3OCC[C@H]3c3cc(F)cc(F)c3)CC2)c1` [Compound 58, trans-1-(4-chloro-3-((4-((S)-3-(3,5-difluorophenyl)isoxazolidine-2-carbonyl)cyclohexyl)methoxy)phenyl)pyrrolidine-2,5-dione] are 44 nM and 104 nM.
The corresponding values for `CC1(C)OC(=O)N(c2ccc(F)c(OC[C@H]3CC[C@H](C(=O)N4OCC[C@H]4c4cc(F)cc(F)c4)CC3)c2)C1=O` [Compound 59, trans-3-(3-((4-((S)-3-(3,5-difluorophenyl)isoxazolidine-2-carbonyl)cyclohexyl)methoxy)-4-fluorophenyl)-5,5-dimethyloxazolidine-2,4-dione] are 29 nM and 30 nM.
The corresponding values for `O=C1CCCN1c1ccc(Cl)c(OC[C@H]2CC[C@H](C(=O)N3OCC[C@H]3c3cc(F)cc(F)c3)CC2)c1` [Compound 60, trans-1-(4-chloro-3-((4-((S)-3-(3,5-difluorophenyl)isoxazolidine-2-carbonyl)cyclohexyl)methoxy)phenyl)pyrrolidin-2-one] are 76 nM and 112 nM.
Consider `N#Cc1cc(F)cc(O[C@H]2C[C@@H](C(=O)N3OCC[C@H]3c3cc(F)cc(F)c3)C2)c1` [Compound 61, cis-3-(3-((S)-3-(3,5-difluorophenyl)isoxazolidine-2-carbonyl)cyclobutoxy)-5-fluorobenzonitrile], for which the IC50 in assay [1] was determined as 54 nM; with U937 cells, 126 nM.
In the same order, the values of `Cc1cc(C)n(-c2ccc(OC[C@H]3CC[C@H](C(=O)N4OCC[C@H]4c4cc(F)cc(F)c4)CC3)c(F)c2)n1` [Compound 62, trans-((S)-3-(3,5-difluorophenyl)isoxazolidin-2-yl)(4-((4-(3,5-dimethyl-1H-pyrazol-1-yl)-2-fluorophenoxy)methyl)cyclohexyl)methanone] are 28 nM and 34 nM.
In the same order, the values of `CN1CC(=O)N(c2ccc(Cl)c(OC[C@H]3CC[C@H](C(=O)N4OCC[C@H]4c4cc(F)cc(F)c4)CC3)c2)C1=O` [Compound 63, trans-3-(4-chloro-3-((4-((S)-3-(3,5-difluorophenyl)isoxazolidine-2-carbonyl)cyclohexyl)methoxy)phenyl)-1-methylimidazolidine-2,4-dione] are 44 nM and 45 nM.
The corresponding values for `Cc1nnc(C)n1-c1ccc(F)c(OC[C@H]2CC[C@H](C(=O)N3OCC[C@H]3c3cc(F)cc(F)c3)CC2)c1` [Compound 64, trans-((S)-3-(3,5-difluorophenyl)isoxazolidin-2-yl)(4-((5-(3,5-dimethyl-4H-1,2,4-triazol-4-yl)-2-fluorophenoxy)methyl)cyclohexyl)methanone] are 56 nM and 529 nM.
With `N#Cc1cc(O[C@H]2C[C@@H](C(=O)N3OCC[C@H]3c3cc(F)cc(F)c3)C2)ccc1F` [Compound 65, cis-5-(3-((S)-3-(3,5-difluorophenyl)isoxazolidine-2-carbonyl)cyclobutoxy)-2-fluorobenzonitrile], the IC50 in assay [1] turned out to be 18 nM; with U937 cells, 49 nM.
In the same order, the values of `NS(=O)(=O)c1cccc(OC[C@H]2CC[C@H](C(=O)N3OCC[C@H]3c3cc(F)cc(F)c3)CC2)c1` [Compound 66, trans-3-((4-((S)-3-(3,5-difluorophenyl)isoxazolidine-2-carbonyl)cyclohexyl)methoxy)benzenesulfonamide] are 35 nM and 8 nM.
Turning to `Cc1nnc(C)n1-c1ccc(OC[C@H]2CC[C@H](C(=O)N3OCC[C@H]3c3cc(F)cc(F)c3)CC2)c(F)c1` [Compound 67, trans-((S)-3-(3,5-difluorophenyl)isoxazolidin-2-yl)(4-((4-(3,5-dimethyl-4H-1,2,4-triazol-4-yl)-2-fluorophenoxy)methyl)cyclohexyl)methanone], the IC50 turned out to be 46 nM in assay [1] and 128 nM in the assay on U937 cells.
In the same order, the values of `Cn1ccn(-c2ccc(OC[C@H]3CC[C@H](C(=O)N4OCC[C@H]4c4cc(F)cc(F)c4)CC3)c(F)c2)c1=O` [Compound 68, trans-1-(4-((4-((S)-3-(3,5-difluorophenyl)isoxazolidine-2-carbonyl)cyclohexyl)methoxy)-3-fluorophenyl)-3-methyl-1,3-dihydro-2H-imidazol-2-one] are 19 nM and 8 nM.
Turning to `O=C([C@H]1C[C@@H](n2cnc3cc(F)ccc32)C1)N1OCC[C@H]1c1cc(F)cc(F)c1` [Compound 69, cis-((S)-3-(3,5-difluorophenyl)isoxazolidin-2-yl)(3-(5-fluoro-1H-benzo[d]imidazol-1-yl)cyclobutyl)methanone], the half-maximal inhibitory concentration (IC50) in assay [1] amounted to 26 nM; with U937 cells, 35 nM.
The corresponding values for `N#Cc1cc(F)cc([C@@H]2CCON2C(=O)[C@H]2C[C@@H](n3cnc4cc(F)ccc43)C2)c1` [Compound 70, cis-3-fluoro-5-((S)-2-(3-(5-fluoro-1H-benzo[d]imidazol-1-yl)cyclobutane-1-carbonyl)isoxazolidin-3-yl)benzonitrile] are 39 nM and 349 nM.

The IC50 is the point on the concentration scale where inhibition reaches its midpoint. Read a high IC50 as a need for much substance.

The values are drawn from patent US20260317312A1, “ISOXAZOLIDINES AS RIPK1 INHIBITORS AND USE THEREOF” (GENZYME CORPORATION, priority 2023, published 2026).
